Assay results: ChEMBL document CHEMBL1157539, “Thousands of chemical starting points for antimalarial lead identification” (Nature, 2010)

System: Plasmodium falciparum
Experiment: GSK_TCMDC: Inhibition of Plasmodium falciparum 3D7 in whole erythrocytes, using parasite LDH activity as an index of growth.
Assay type: functional, organism-based
Conditions: Plasmodium falciparum, 3D7

Compound	XC50 [nM]
COc1ccc(NC(=O)CCNc2ccnc(NCCc3ccc(F)cc3)n2)cc1	990
Cc1cc(NC(=O)CCCN2CCN(c3cccc(Cl)c3Cl)CC2)ccc1N1CCN(C(C)C)CC1	757
CC(C)C(C(=O)n1ncc2c3c(N)nc(N)nc3ccc21)C(C)C	648
COc1cc(NC(=O)C(c2ccc(Cl)cc2)C(C)C)cc(OC)c1OC (stereo unspecified)	534
N#Cc1ccc(-c2ccc(C(=O)Nc3ccc4c(c3)CCN(C3CCC3)CC4)nc2)cc1	696
O=C(NCc1cccc(C(F)(F)F)c1)C(c1cc2ccccc2o1)N1CCN(C(c2ccccc2)c2ccccc2)CC1 (stereo unspecified)	498
Cc1ccc(NC(=O)Cc2noc(CC3CCCN3C(=O)N[C@@H](C)c3ccccc3)n2)cc1 (stereo partly specified)	369
COc1ccc(CC2(CO)CCN(Cc3ccc(O)c(Cl)c3)CC2)cc1	859
COc1cc2nc(N3CCC(CNC(=O)c4ccc(C(C)=O)cc4)CC3)nc(N)c2cc1OC	1120
O=C(Nc1cccc(-c2cccc(-c3nc4ccccc4[nH]3)c2)c1)Nc1ccc2c(c1)OCO2	167
CC(CN1CCN(C)CC1)C(=O)Nc1ccc(-c2csc(-c3nc4ccccc4[nH]3)c2)cc1 (stereo unspecified)	837
CCOC(=O)CC[C@@H](NC(=O)c1ccc(NCc2ccc3ccc4nc(C)[nH]c(=O)c4c3c2)cc1F)C(=O)N[C@@H](Cc1c[nH]c2ccccc12)C(=O)OCC	1030
Cc1cccc2c(C(=O)NC3CCN(Cc4ccccc4)CC3)cc(-c3cccnc3)nc12	1380
O=[N+]([O-])c1ccc(Oc2c(Cl)cc(S(=O)(=O)N3CCC(CN4CCC(c5c[nH]c6ccccc56)CC4)CC3)cc2Cl)c(Cl)c1	998
CCCc1ccc(Nc2nc(C)cc(N(CC)CCCN3CCCCC3)n2)cc1	543
O=C(NCCCCN1CCC(c2ccc3c(c2OCC(O)c2ccc(Cl)cc2)CCCC3)CC1)c1ccc(-c2ccc(C(F)(F)F)cc2)cc1 (stereo unspecified)	1040
Nc1nccc2ccc(-c3ccncc3)cc12	249
CC(C)C1C(O)=C(c2ccc3ccccc3c2)C(=O)N1Cc1ccsc1 (stereo unspecified)	1070
Cc1ccc(-c2nnc3c4ccccc4c(C)nn23)cc1S(=O)(=O)N1CCN(CCO)CC1	669
CCc1cc2c(=O)c(-c3nc(C)cs3)c([C@H](N)Cc3ccc(O)cc3)oc2cc1O	902
CCCc1cc(Cc2cnc(N)nc2N)cc(CC)c1OC	821
Clc1ccc2c(NCc3ccccn3)ccnc2c1	664
Clc1ccc(-c2cnc3ccc(NCCc4cccnc4)nn23)cc1	857
COc1ccc(CNC2CCN(C)CC2)cc1-c1ccc(S(=O)(=O)NCc2ccccc2)cc1	604

Compound	XC50 [nM]
CCC(C)NS(=O)(=O)c1ccc2nc(Nc3cccc(SC)c3)n(C(C)C(C)C)c2c1 (stereo unspecified)	503
C=Cc1cc(NC(=O)N2CCc3cc(OC)c(C(F)(F)F)cc32)cc(-c2cccnc2)c1	702
O=[N+]([O-])c1ccc2ncnc(Nc3ccc(F)c(Cl)c3)c2c1	709
Cc1cc(C)c(O)c(-c2cc(C(=O)Nc3ccc(S(=O)(=O)N4CC(C)OC(C)C4)cc3)[nH]n2)c1 (stereo unspecified)	664
Cc1cc(N[C@@H](Cc2ccccc2)C(=O)NC2CCCC2)nc(NCCc2ccc(F)cc2)n1	803
CC1CCc2sc(-c3nnc(SC(C)C(=O)NC4CC4)o3)cc2C1 (stereo unspecified)	1210
O=C(Cc1ccc[n+]([O-])c1)Nc1cccc(-c2cccc(-c3nc4cc(C(F)(F)F)ccc4[nH]3)c2)c1	784
COc1cc2c(cc1OC)C(C)(C)CN1Cc3c(c(CO)c(OC)c(OC)c3OC)CC21 (stereo unspecified)	782
O=C(/C=C/c1ccc(Cl)c(Cl)c1)NCCCCCN1CCCC(CNC(=O)Nc2ccc(Oc3ccccc3)cc2)C1 (stereo unspecified)	783
N#CC(c1cccc(Cl)c1)c1ccc2c(C(F)(F)F)cc(C(F)(F)F)nc2n1 (stereo unspecified)	727
CCn1c(SCc2ccc(F)cc2)nc2sc3c(c2c1=O)CCN(C)C3	254
COc1cccc(CNC[C@@H](O)[C@H](Cc2ccccc2)NC(=O)c2cc(C(C)C)cc(N3CCCC3=O)c2)c1	953
CC[C@H]1CN2CC[C@H]1C[C@H]2[C@H](OC(=O)c1ccccc1)c1cc(C#N)nc2ccc(OC)cc12	915
CNCCNCc1cccc(-c2ccc(-c3nc4cccc(C)c4[nH]3)s2)c1	953
CC(=O)Nc1ccc(OCCN(Cc2ccccc2C(F)(F)F)c2ccc(C#N)c(C(F)(F)F)c2)c(Cl)c1	619
COC(=O)c1cccc(CNCc2cccc(-c3ccc(-c4nc5cccc(C)c5[nH]4)s3)c2)c1	211
Cc1cc(C(=O)Nc2ccc3c(c2)CCN3C2CCN(Cc3ccc4nsnc4c3)C2)no1 (stereo unspecified)	641
O=C(Nc1cccc(-c2cccc(F)c2)c1)C1CCN(Cc2ccc(O)cc2)CC1	1730
O=C(/C=C/c1ccc(Cl)c(Cl)c1)NCCCCCN1CCC(NC(=S)Nc2cccc(Cl)c2)CC1	873
O=C(Nc1ccc(Br)cc1)Nc1ccc(Cn2ncc(N3CCCNCC3)c(Cl)c2=O)cc1	1140
Cc1ccc(CN2CCN(CC(O)COc3ccc4c(c3)CCC4)CC2)cc1 (stereo unspecified)	863
O=C(/C=C/c1cc(C(F)(F)F)ccc1F)NC1CCC(CN2CCC(c3c[nH]c4ccccc34)CC2)CC1 (stereo unspecified)	818
COc1ccc2nccc([C@@H](O)CN3CCC(NC(=O)/C=C/c4ccc(F)c5ccccc45)CC3)c2c1	184
CC[C@H]1CN2CC[C@@H]1C[C@H]2[C@H](O)c1cc(N2CCC(O)(c3ccc(Cl)cc3)CC2)nc2ccc(OC)cc12	71

Compound	XC50 [nM]
CCCCNc1c(CC)c(C)c(C#N)c2nc3ccccc3n12	385
Fc1ccc(-c2cncc(Nc3ccncc3)n2)cc1	1320
CC(C)(C)c1ccc(CNC(=O)/C=C/c2ccc(CNC3CCNCC3)cc2)cc1	1090
COCCNCc1ccc(-c2cccc(CNC3CCN(Cc4ccccc4)CC3)c2)cc1	333
Cc1cccc2nc(-c3ccc(-c4cccc(NC(=O)Nc5ccsc5)c4)cc3)[nH]c12	799
N=C(N)c1ccc(Nc2nccc(Nc3nc(-c4ccccc4)cs3)n2)cc1	754
Cc1ccc(Nc2nc(NN=Cc3ccc(-c4ccc([N+](=O)[O-])cc4)o3)nc(N3CCOCC3)n2)cc1Cl	652
O=C(N[C@@H](CC1CCCCC1)C(=O)NCCN1CCCCC1)c1ccc(O)c(-c2ccc(Cl)c(Cl)c2)c1	148
COc1cc(C)c(NC(=O)c2cccc3c(=O)c(C)c(-c4ccccc4)oc23)cc1OC	1630
Cc1cccc2nc(-c3cccc(-c4cccc(NC(=O)COc5ccccc5C(N)=O)c4)c3)[nH]c12	161
CCCCN1CCCN(Cc2cccc(NC(=O)c3ccc(-c4ccccc4)cc3)c2)CC1	1030
CC1(C)N=C(N)N=C(N)N1c1cccc(Cl)c1	37.9
CC(C)c1ccc(NC(=O)c2ccc(CN3CCCN(Cc4cccc(O)c4)CC3)cc2)cc1	679
COc1ccc2[nH]ccc(=NN=Cc3ccc(N(C)C)cc3)c2c1	799
COCCNCc1cccc(-c2ccc3nccc(Nc4cc(O)ccc4C)c3c2)c1	749
O=C1OC(c2ccccc2)(c2ccccc2)CN1CC1CCN(Cc2ccc(O)c(Cl)c2)CC1	818
CC(C)N(Cc1cnc2nc(N)nc(N)c2n1)c1ccc(Cl)c(Cl)c1	158
CC(C)(CNC(=O)[C@H]1CCCCN1)c1nc(-c2ccc(Cl)c(O)c2)c(-c2ccncc2)[nH]1	727
Cc1nc(-c2ccc(-c3ccc(C(=O)Nc4ccc(Cl)c(N5CCN(C)CC5)c4)cc3)c(C)c2)no1	743
COc1ccc(-c2cccc(NC(=O)c3ccc(Cl)cc3)c2)cc1CN1CCCN(C)CC1	387
CCN(CC)/C(=N/C(=N)Nc1ccc(C)cc1)NCCCCCCN/C(=N\C(=N)Nc1ccc(C)cc1)N(CC)CC	539
Cc1c(-c2cccc(Br)c2)[nH]c2nc(N)nc(N)c12	743
O=C(Nc1nc2cc(S(=O)(=O)NCCc3ccc(F)cc3)ccc2n1CCCn1ccnc1)c1ccc(Cl)cc1	1110
O=C(N1CCN(c2cccc(C(F)(F)F)c2)CC1)C(Cl)(Cl)Cl	887

Compound	XC50 [nM]
Cc1cc2c(cc1C(F)(F)F)N(C(=O)Nc1ccc(C(=O)NC3CCN(Cc4ccccc4)C3)cc1)CC2 (stereo unspecified)	776
COc1cc(C(C)C)ccc1C1CCN(CCCCNC(=O)c2ccc(NC(=O)c3ccc(Cl)cc3)cc2)CC1	449
O=C(c1ccc(F)c2ccccc12)N1CCc2cc3nccc(N4CCN5CCC[C@H]5C4)c3cc21	1000
COc1cc2nc(N(C)Cc3cc4c(Cl)cccc4s3)nc(N)c2cc1OC	953
O=C(Nc1cccc(CN2CCCN(Cc3ccc(O)cc3)CC2)c1)c1ccc2ccccc2c1	373
COCC(=O)Nc1nc2ccccc2[nH]1	301
CNCCCn1c(N(C)C)nc2cc(-n3cnc4cc(-c5ccc(Cl)cc5)sc4c3=O)ccc21	1140
O=C(Nc1cccc(-c2ccc(-c3nc4ccccc4[nH]3)cc2)c1)c1csnn1	1070
Cc1ccc(C(=O)Nc2cccc(CN3CCCN(Cc4ccc(O)cc4)CC3)c2)cc1	1090
c1cc(CNCCc2ccncc2)cc(-c2ccc(-c3nc4ccccc4[nH]3)s2)c1	336
CC(C)(C)c1ccc(OC(=O)c2ccc(NC(=O)N[C@@H](Cc3ccc(O)cc3)C(=O)NC3CCN(Cc4ccc(O)cc4)C3)cc2)cc1 (stereo partly specified)	814
O=C(Nc1ccc(Cl)cc1)Nc1cccc(CCNCc2ccccc2)c1	728
C=CCCCNCC(NCCCNc1cc(=O)c2ccccc2[nH]1)c1cc(Br)cc(Br)c1 (stereo unspecified)	893
COc1ccc(N2C(=O)c3c(c4ccccc4n3C)C2c2ccccc2O)cc1 (stereo unspecified)	117
CN1CCN(c2nc(NCCNc3ccc([N+](=O)[O-])cc3)c3ccccc3n2)CC1	1320
CCCCCCCCNCc1c(O)ccc2ccccc12	739
Cc1cccc(Nc2nc(N[C@@H]3CCCNC3)nc3cc[nH]c(=O)c23)c1	683
COc1ccc(C2c3cc(OC)c(OC)cc3C(=NO)C2C)cc1OC (stereo unspecified)	1170
NOCCCCOc1ccc(Cl)cc1	785
CC(C)Oc1cc2c(cc1NS(=O)(=O)c1ccc(-c3cccs3)cc1)CCN(C)CC2	961
O=C(Nc1ccc(Cl)cc1Cl)NC1CCN(CCCCCNC(=O)C2CC2c2ccc(Cl)c(Cl)c2)CC1 (stereo unspecified)	367
Fc1ccc(CNc2nc(-c3ccc(F)c(C(F)(F)F)c3)n(-c3cccc(C(F)(F)F)c3)n2)cc1	563
COC(=O)c1cccc(CNCc2cccc(-c3ccc(-c4nc5ccccc5[nH]4)cc3)c2)c1	354
CC(=O)Nc1ccc(CN(C)C2CCN(c3cc(NC(=O)c4cccc(C)c4)ccn3)CC2)cc1	904
